Experimental data as given in publication PMC2120771 (The Journal of Cell Biology, 1996).

Legend:
[1] = test system: Shigella flexneri M90T; experiment: Shigella intracellular motility in PtK2 cells before and after microinjection; assay type: cell-based
[2] = test system: profilin-VASP; conditions: in vitro; ref Reinhard et al., 1995; cited from earlier work
[3] = test system: Listeria monocytogenes; conditions: microinjection; ref Southwick and Purich, 1995; cited from earlier work
[4] = intracellular 80 nM, 2-4 min after microinjection
[5] = intracellular concentration 10 μM

Substance: CFEFPPPPTDE [Act A peptide]
- Time after injection at which bacterial motility ceases ([1]; 800 nM needle concentration, estimated intracellular concentration 80 nM): ≤ 30 s
- Time after injection at which phase-dense actin tails disappear ([1]; estimated intracellular concentration 80 nM): ≤ 30 s
- Fraction of bacteria that resume migration [1, 4]: One quarter
- Rate of resumed movement relative to velocities measured before injection [1, 4]: 25-30%
- Effect on Shigella intracellular movement ([1]; intracellular concentration 8 nM (Fig. 5 B)): fails to inhibit
- Postinjection/preinjection velocity ([1]; intracellular concentration 80 nM): 0.07
- Effect on Shigella intracellular movement ([1]; intracellular concentrations 400-800 nM (Fig. 5 B)): consistently block intracellular movement

Substance: poly-L-proline [reference compound]
- Effect on Shigella velocity ([1]; increasing intracellular concentrations (Fig. 8 A), each point mean of 20-40 velocity measurements): dose-dependent slowing of bacterial velocity

Substance: (GPPPPP)3 [VASP peptide]
- Intracellular concentration that inhibits Shigella movement ([1]; PtK2 cells, microinjection, estimated intracellular concentration): 10 µM
- Postinjection/preinjection velocity [1, 5]: 0.15
- Postinjection velocity ([1]; intracellular concentration 10 μM, mean, SD): 0.02 - 0.05 μm/s
- Effect on Shigella motility ([1]; intracellular concentrations 2 and 6 μM (Fig. 7 B), large standard deviations): variable inhibition
- Dissociation of profilin from VASP [2]: can dissociate profilin from VASP in vitro

Substance: VKSKIGSTDNIKYZPKGG [MAP-2 peptide, reference compound]
- Postinjection/preinjection velocity [1, 5]: 1.00

Substance: YDPAPPPPPP [mosquito oostatic factor]
- Effect on Listeria locomotion [3]: inhibits Listeria locomotion
